Measurements: patent publication US10808008B2, “Aromatic-cationic peptides and uses of same” (Cornell University, priority 2012, dated 2020)
“Also recorded” adds a separate entry of the source.

How the values were obtained:
cytochrome c [1] = biological target: T1, cytochrome c (Equus caballus, UniProt P00004); assay: Cytochrome c reduction kinetics (absorption spectroscopy); format: biochemical
Procedure: Increasing amounts of aromatic-cationic peptides were added to a solution of oxidized cytochrome c. The formation of reduced cytochrome c was monitored by absorbance at […]. The rate of cytochrome c reduction was determined by non-linear analysis (Prizm software).
Time-resolved UV-Visible absorption spectroscopy was used to study the electron transport process of cytochrome c in the presence of peptides. Reduced cytochrome c was monitored by absorbance at a broad-band spectral range (200-1100 nm). The absorption changes were recorded with a UV/Visible spectrophotometer (Ultrospec 3300 pro, GE) in quartz cells with path lengths of 1 or 2 mm. N-acetylcysteine (NAC) and glutathione were used as electron donors to reduce oxidized cytochrome c. The rate constant of cytochrome c reduction was estimated by adding various concentrations of peptides. The dose dependence of the peptides was correlated to the cytochrome c reduction kinetics.
Absorption spectroscopy (UltroSpec 3300 Pro; 220-1100 nm) was used to determine if SS-31 modulates cytochrome c reduction (FIG. 1). Reduction of cytochrome c with glutathione is associated with multiple shifts in the Q band (450-650 nm), with a prominent shift at 550 nm. […] Accordingly, the aromatic-cationic peptides of the present disclosure are useful for altering the structure and oxidation state of cytochrome c, and are useful for the prevention or treatment of diseases or disorders characterized by dysregulation of cytochrome c.
Reduction of cytochrome c was monitored by increase in absorbance at 550 nm. […] Similar results were obtained using N-acetylcysteine (NAC) as a reducing agent (not shown). […] Accordingly, aromatic-cationic peptides of the present disclosure are useful for the prevention or treatment of diseases or disorders characterized by dysregulation of cytochrome c and are useful for facilitating cytochrome c reduction.

cytochrome c [2] = biological target: T1, cytochrome c; assay: Cyclic voltammetry of cytochrome c; format: biochemical
cytochrome c [3] = biological target: T1, cytochrome c; assay: Photoluminescence of cytochrome c; format: biochemical; settings: excitation 532.8 nm
Procedure: Photoluminescence (PL) was carried out to examine the effects of SS-31 on the electronic structure of conduction band of the heme of cytochrome c, an energy state responsible for electronic transport (FIG. 3). A […] laser (532.8 nm) was used to excite electrons in cytochrome c (FIG. 3A). Strong PL emission in cytochrome c state can be clearly identified at 650 nm (FIG. 3B). […] Accordingly, aromatic-cationic peptides of the present disclosure are useful for the prevention or treatment of diseases or disorders characterized by dysregulation of cytochrome c, for enhancing electron capacity in cytochrome c, and for treatment of diseases or disorders characterized by dysregulation of electron capacity in cytochrome c.

[4] = system: isolated rat kidney mitochondria; assay: O2 consumption in isolated mitochondria; format: biochemical
Procedure: Fresh mitochondria were isolated from rat kidney as described previously. Electron flux was measured by O2 consumption (Oxygraph Clark electrode) as previously described using different substrates for C1 (glutamate/malate), C2 (succinate), and C3 (TMPD/ascorbate). Assays were carried out under low substrate conditions in order to avoid saturating the enzyme reactions. ATP production in isolated mitochondria was determined kinetically using the luciferase method (Biotherma) in a 96-well luminescence plate reader (Molecular Devices). The initial maximal rate for ATP synthesis was determined over the first minute.
Oxygen consumption of isolated rat kidney mitochondria was determined using the Oxygraph (FIG. 5). Rates of respiration were measured in the presence of different concentrations of SS-31 in state 2 (400 μM ADP only), state 3 (400 μM ADP and 500 μM substrates) and state 4 (substrates only). All experiments were done in triplicate with n=4−7. […] Accordingly, aromatic-cationic peptides of the present disclosure are useful for promoting electron transfer to oxygen without uncoupling mitochondria, increasing O2 consumption, and treating diseases or conditions related to dysregulation of O2 consumption in mitochondria.
SS-20 or SS-31 was added at 100 μM concentrations to isolated mitochondria in respiration buffer containing 0.5 mM succinate (complex II substrate) and 400 μM ADP. Similar increases in O2 consumption were observed when low concentrations of complex I substrates (glutamate/malate) were used (data not shown). […] Accordingly, targeting SS-20 and SS-31 to the IMM can facilitate electron flux in the electron transport chain and improve ATP synthesis, especially under conditions of reduced substrate supply.
SS-20 or SS-31 was added at 10 μM or 100 μM concentrations to isolated mitochondria in respiration buffer containing glutamate/malate (complex I substrate), 0.5 mM succinate (complex II substrate) or 3 μM TMPD/1 mM ascorbate (direct reductant of cytochrome c). 400 μM ADP was added to initiate State 3 respiration.

[5] = system: cytochrome c-depleted mitoplasts; assay: Respiration in cytochrome c-depleted mitoplasts; format: biochemical, rat
Procedure: Rates of respiration were measured in the presence of 500 μM Succinate with or without 100 μM SS-31. The experiment was carried out in triplicate, with n=3. […] Accordingly, aromatic-cationic peptides of the present disclosure are useful for the prevention or treatment of diseases or disorders characterized by dysregulation of cytochrome c.
A model of cytochrome c tightly bound to mitochondrial cardiolipin was used to investigate interaction of SS-31 with cytochrome c-CL complex in mitochondria. After removal of outer membrane with digitonin, mitoplasts were washed with 120 mM KCl to remove all free and electrostatically associated cytochrome c, leaving only cytochrome c tightly bound to CL.

[6] = biological target: T2, horse radish peroxidase (HRP) (Armoracia rusticana, UniProt P00433); assay: Horseradish peroxidase activity (Amplex Red); format: biochemical; settings: data not shown
T2 sequence (P00433 31-338 limits assumed): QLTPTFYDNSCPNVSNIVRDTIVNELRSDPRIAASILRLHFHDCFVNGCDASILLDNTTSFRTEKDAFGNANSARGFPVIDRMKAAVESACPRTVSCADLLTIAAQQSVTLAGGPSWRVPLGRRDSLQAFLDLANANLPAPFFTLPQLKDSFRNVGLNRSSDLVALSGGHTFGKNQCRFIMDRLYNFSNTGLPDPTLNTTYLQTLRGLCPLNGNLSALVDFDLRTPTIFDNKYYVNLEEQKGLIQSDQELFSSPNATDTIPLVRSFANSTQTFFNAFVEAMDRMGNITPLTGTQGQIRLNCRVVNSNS

T1 sequence (P00004 2-105 limits assumed): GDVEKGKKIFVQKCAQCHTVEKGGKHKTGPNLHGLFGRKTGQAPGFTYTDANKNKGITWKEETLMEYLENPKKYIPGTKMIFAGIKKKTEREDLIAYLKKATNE

Q: With D-Arg-2′,6′-Dmt-Lys-Phe-NH2 [SS-31] as the substance, how does the “rate of NAC-induced cytochrome c reduction” value (cytochrome c [1]; N-acetylcysteine (NAC) as reducing agent) read?
A: The value was “dose-dependently increased the rate of NAC-induced cytochrome c reduction”.

Q: And the “rate (kinetics) of cytochrome c reduction” value (cytochrome c [1]; glutathione (GSH) as reducing agent, absorbance at 550 nm)?
A: Its value is “increased the rate of cytochrome c reduction; also recorded: accelerate the kinetics of cytochrome c reduction”.

Q: And the “reduction of cytochrome c by peptide alone” value (cytochrome c [1]; peptide alone at 100 μM)?
A: The value was “did not reduce cytochrome c”.

Q: What about the “spectral weight shift in Q band of cytochrome c” value (cytochrome c [1]; reduction of cytochrome c with glutathione) of the same substance?
A: Its value is “significant spectral weight shift at 550 nm”.

Q: What about the “reduction/oxidation potentials of cytochrome c” value (cytochrome c [2]) of the same substance?
A: Its value is “does not alter reduction/oxidation potentials”.

Q: What about the “current of cytochrome c reduction and oxidation processes” value (cytochrome c [2]; Au working electrode, Ag/AgCl reference) of the same substance?
A: The value was “increased current for both reduction and oxidation processes of cytochrome c”.

Q: And the “increase of current (electron diffusion rate)” value (cytochrome c [2]; cytochrome c:SS-31=1:2, TBE buffer)?
A: The value was roughly 200%.

Q: And the “photoluminescence (PL) intensity of cytochrome c at 650 nm” value (cytochrome c [3])?
A: Its value is “increased dose-dependently”.

Q: What about the “O2 consumption in state 3 respiration” value ([4]; 10 μM or 100 μM peptide, complex I or complex II substrates or TMPD/ascorbate, 400 μM ADP) of the same substance?
A: Its value is “increased O2 consumption in state 3 respiration”.

Q: And the “electron flux measured by O2 consumption” value ([4]; 100 μM peptide, 0.5 mM succinate, 400 μM ADP)?
A: Its value is “promote electron flux”.

Q: What about the “electron transfer to oxygen (rates of respiration)” value ([4]; state 2, state 3 and state 4, different concentrations of SS-31) of the same substance?
A: The value was “promoted electron transfer to oxygen without uncoupling mitochondria”.

Q: What about the “respiration (O2 consumption) in cytochrome c-depleted mitoplasts” value ([5]; 500 μM succinate, 100 μM SS-31) of the same substance?
A: Its value is “Enhances Respiration in Cytochrome c-Depleted Mitoplasts”.

Q: What about the “complex II respiration in mitoplasts with tightly bound cytochrome c” value ([5]; mitoplasts washed with 120 mM KCl) of the same substance?
A: Its value is “enhances complex II respiration in mitoplasts with cytochrome c tightly bound to inner mitochondrial membrane in a dose-dependent manner”.

Q: And the HRP activity [6]?
A: Its HRP activity is “no effect”.
